Several values for one entry are separate records, joined by “and”; a condition that tells them apart may be missing. Identical values can stand only once. Like-named read-outs stand apart in the source and are kept apart here.
Assays:
recombinant mTOR = recombinant mTOR (Homo sapiens, UniProt P42345); experiment: In vitro mTOR kinase assay, Test (a)(i) (AlphaScreen); format: biochemical
Experimental: (a)(i) In Vitro mTOR Kinase Assay
The HEK293 FLAG-tagged mTOR (1362-2549) stable cell line was routinely maintained at 37° C. with 5% CO2 up to a confluency of 70-90% in Dulbecco's modified Eagle's growth medium (DMEM; Invitrogen Limited, Paisley, UK Catalogue No. 41966-029) containing 10% heat-inactivated foetal calf serum (FCS; Sigma, Poole, Dorset, UK, Catalogue No. F0392), 1% L-glutamine (Gibco, Catalogue No. 25030-024) and 2 mg/ml Geneticin (G418 sulfate; Invitrogen Limited, UK Catalogue No. 10131-027). Following expression in the mammalian HEK293 cell line, expressed protein was purified using the FLAG epitope tag using standard purification techniques.
A 30 μl mixture of recombinant purified mTOR enzyme, 1 μM biotinylated peptide substrate (Biotin-Ahx-[…]NH2; Bachem UK Ltd), ATP (20 μM) and a buffer solution [comprising Tris-HCl pH7.4 buffer (50 mM), EGTA (0.1 mM), bovine serum albumin (0.5 mg/mL), DTT (1.25 mM) and manganese chloride (10 mM)] was agitated at room temperature for 90 minutes.
These assay solutions were incubated for 2 hours at room temperature.
Phosphorylated biotinylated peptide is formed in situ as a result of mTOR mediated phosphorylation. The phosphorylated biotinylated peptide that is associated with AlphaScreen Streptavidin donor beads forms a complex with the p70 S6 Kinase (T389) 1A5 Monoclonal Antibody that is associated with Alphascreen Protein A acceptor beads. […] Accordingly, the presence of mTOR kinase activity results in an assay signal. In the presence of an mTOR kinase inhibitor, signal strength is reduced.

Serine 473 in Akt = experiment: In vitro phospho-Ser473 Akt assay, Test (c); format: cell-based; details: Homo sapiens; MDA-MB-468 cells; read-out: IC50 versus Serine 473 in Akt, Test (c)
Experimental: (c) In Vitro phospho-Ser473 Akt Assay
This assay determines the ability of test compounds to inhibit phosphorylation of Serine 473 in Akt as assessed using Acumen Explorer technology (Acumen Bioscience Limited), a plate reader that can be used to rapidly quantitate features of images generated by laser-scanning.
A MDA-MB-468 human breast adenocarcinoma cell line (LGC Promochem, Teddington, Middlesex, UK, Catalogue No. HTB-132) was routinely maintained at 37° C. with 5% CO2 up to a confluency of 70-90% in DMEM containing 10% heat-inactivated FCS and 1% L-glutamine.
For the assay, the cells were detached from the culture flask using ‘Accutase’ (Innovative Cell Technologies Inc., San Diego, Calif., USA; Catalogue No. AT104) using standard tissue culture methods and resuspended in media to give 1.7×10^5 cells per mL. […]
All subsequent aspiration and wash steps were carried out using a Tecan 96 well plate washer (aspiration speed 10 mm/sec). […] An aliquot of PBS (50 μl) was added to each well and the plates were sealed with black plate sealers and the fluorescence signal was detected and analysed.
Fluorescence dose response data obtained with each compound were analysed and the degree of inhibition of Serine 473 in Akt was expressed as an IC50 value.

PI3K = molecular target: T1, PI3K; experiment: In vitro PI3K enzyme assay, Test (b)(i) (AlphaScreen); format: biochemical, human; details: single values measured on two occasions; isoform (p110α or p110γ) not clearly stated; read-out: IC50 versus PI3K, Test (b)(i)
T1 construct: full length DNA of each of the p110α, p110β and p110δ Type Ia human PI3K p110 isoforms
T1 sequence (P42336 whole entry, canonical isoform): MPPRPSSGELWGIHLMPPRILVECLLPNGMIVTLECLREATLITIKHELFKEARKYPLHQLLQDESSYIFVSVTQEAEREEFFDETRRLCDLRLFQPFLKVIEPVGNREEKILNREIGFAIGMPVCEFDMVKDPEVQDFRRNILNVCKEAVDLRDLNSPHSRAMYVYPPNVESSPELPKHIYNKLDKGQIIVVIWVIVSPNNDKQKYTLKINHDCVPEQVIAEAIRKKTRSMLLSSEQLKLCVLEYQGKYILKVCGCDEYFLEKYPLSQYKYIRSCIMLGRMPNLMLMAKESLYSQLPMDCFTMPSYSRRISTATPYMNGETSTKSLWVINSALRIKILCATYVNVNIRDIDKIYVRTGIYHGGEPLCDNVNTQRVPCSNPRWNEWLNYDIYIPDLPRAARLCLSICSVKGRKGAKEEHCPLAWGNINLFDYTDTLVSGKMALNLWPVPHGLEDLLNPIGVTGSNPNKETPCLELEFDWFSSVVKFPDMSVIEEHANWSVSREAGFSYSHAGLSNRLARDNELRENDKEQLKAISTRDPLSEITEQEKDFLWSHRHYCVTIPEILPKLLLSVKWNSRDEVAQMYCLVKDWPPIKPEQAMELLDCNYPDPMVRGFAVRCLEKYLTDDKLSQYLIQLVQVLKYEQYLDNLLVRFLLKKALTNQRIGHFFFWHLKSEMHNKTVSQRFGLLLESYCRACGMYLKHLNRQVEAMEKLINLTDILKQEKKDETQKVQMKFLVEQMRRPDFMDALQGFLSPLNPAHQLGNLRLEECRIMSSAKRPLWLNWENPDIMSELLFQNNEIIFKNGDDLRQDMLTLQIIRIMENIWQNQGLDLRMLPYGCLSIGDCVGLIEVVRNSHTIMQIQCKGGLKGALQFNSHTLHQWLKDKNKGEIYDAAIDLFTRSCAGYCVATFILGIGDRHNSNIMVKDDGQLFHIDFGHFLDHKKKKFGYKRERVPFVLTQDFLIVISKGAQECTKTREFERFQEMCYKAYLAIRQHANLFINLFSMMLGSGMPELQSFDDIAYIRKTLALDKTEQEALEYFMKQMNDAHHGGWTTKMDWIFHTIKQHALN
T1 sequence (P27986 2-724, further chain): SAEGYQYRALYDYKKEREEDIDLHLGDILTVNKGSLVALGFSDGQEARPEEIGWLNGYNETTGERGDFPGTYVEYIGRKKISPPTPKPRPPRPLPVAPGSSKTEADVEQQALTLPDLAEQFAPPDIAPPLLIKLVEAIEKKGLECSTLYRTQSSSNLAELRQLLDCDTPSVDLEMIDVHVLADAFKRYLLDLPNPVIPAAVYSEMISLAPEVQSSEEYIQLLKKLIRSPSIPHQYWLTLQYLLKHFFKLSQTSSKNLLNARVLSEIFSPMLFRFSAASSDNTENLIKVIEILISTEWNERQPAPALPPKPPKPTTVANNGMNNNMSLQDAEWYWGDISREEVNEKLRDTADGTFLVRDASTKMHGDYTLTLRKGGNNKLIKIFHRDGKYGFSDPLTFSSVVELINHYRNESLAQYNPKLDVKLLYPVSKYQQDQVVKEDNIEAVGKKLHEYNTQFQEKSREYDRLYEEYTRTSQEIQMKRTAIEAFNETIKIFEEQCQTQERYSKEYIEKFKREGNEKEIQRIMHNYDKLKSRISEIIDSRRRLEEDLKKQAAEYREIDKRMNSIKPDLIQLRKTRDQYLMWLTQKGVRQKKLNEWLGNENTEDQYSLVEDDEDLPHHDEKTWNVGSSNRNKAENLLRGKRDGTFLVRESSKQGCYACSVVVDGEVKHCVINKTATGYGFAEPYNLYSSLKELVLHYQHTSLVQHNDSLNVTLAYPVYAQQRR
From the text: (b)(i) In Vitro PI3K Enzyme Assay

[1] = enzyme assay, values may represent the average of two or more measurements, read-out: Test (a)(i) IC50

recombinant mTOR, sequence (P42345 1362-2549): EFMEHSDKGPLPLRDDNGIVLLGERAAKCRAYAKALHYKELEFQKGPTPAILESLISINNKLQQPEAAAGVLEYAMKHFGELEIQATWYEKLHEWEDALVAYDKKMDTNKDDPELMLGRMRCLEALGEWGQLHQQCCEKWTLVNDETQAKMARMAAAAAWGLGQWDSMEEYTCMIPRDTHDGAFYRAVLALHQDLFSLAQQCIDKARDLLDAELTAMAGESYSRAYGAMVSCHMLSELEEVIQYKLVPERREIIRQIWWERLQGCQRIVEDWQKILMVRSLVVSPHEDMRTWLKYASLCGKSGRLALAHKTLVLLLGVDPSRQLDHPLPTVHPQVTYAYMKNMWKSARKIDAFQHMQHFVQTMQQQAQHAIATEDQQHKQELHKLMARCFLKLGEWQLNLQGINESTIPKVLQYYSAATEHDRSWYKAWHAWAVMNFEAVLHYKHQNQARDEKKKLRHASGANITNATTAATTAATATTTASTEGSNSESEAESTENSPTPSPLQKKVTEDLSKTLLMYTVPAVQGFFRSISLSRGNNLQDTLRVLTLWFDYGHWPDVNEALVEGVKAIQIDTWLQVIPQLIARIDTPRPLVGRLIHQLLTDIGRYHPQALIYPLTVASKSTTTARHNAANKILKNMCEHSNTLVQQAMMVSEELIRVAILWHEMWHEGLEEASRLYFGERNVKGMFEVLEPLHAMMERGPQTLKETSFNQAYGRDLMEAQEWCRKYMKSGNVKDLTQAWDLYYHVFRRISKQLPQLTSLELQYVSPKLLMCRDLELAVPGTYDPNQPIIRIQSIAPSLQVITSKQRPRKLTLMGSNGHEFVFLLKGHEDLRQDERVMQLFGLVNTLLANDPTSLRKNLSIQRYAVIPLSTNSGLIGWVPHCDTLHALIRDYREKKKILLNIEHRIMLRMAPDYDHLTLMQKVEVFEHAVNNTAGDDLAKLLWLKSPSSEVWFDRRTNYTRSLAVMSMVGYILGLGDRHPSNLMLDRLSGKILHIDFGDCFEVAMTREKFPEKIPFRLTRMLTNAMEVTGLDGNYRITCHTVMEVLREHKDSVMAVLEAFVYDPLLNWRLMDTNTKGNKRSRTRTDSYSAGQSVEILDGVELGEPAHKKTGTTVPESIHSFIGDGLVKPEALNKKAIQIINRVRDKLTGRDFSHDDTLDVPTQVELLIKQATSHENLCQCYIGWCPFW

## CCC(C)[S+]([O-])Cc1cc(N2CCOC[C@H]2C)nc(-c2ccc3[nH]ccc3c2)n1 (stereo partly drawn) [Example 27, 5-[4-(butan-2-ylsulfinylmethyl)-6-[(3R)-3-methylmorpholin-4-yl]pyrimidin-2-yl]-1H-indole]
Recombinant mTOR; [1]
  IC50: 1170 nM

## C[C@H]1COCCN1c1cc(CS(C)(=O)=O)nc(-c2ccc3cc[nH]c3c2)n1 [Example 35, 6-[4-[(3S)-3-Methylmorpholin-4-yl]-6-(methylsulfonylmethyl)pyrimidin-2-yl]-1H-indole]
Serine 473 in Akt
  IC50: 3360 nM
PI3K
  IC50: 37000 nM
Recombinant mTOR; [1]
  IC50: 478 nM
Recombinant mTOR; single values measured on two occasions, read-out: IC50 versus mTOR kinase, Test (a)(i)
  IC50: 566 nM and 404 nM

## COc1ccc(C(=O)Nc2cc(N3CCOC[C@@H]3C)nc(N3CCOC[C@@H]3C)n2)cc1 [Example 19, N-[2,6-Bis[(3S)-3-methylmorpholin-4-yl]pyrimidin-4-yl]-4-methoxy-benzamide]
Recombinant mTOR; [1]
  IC50: 181 nM

## C[C@H]1COCCN1c1cc(CS(=O)(=O)c2ccccc2)nc(-c2cnc3[nH]ccc3c2)n1 [Example 46, 3-[4-(benzenesulfonylmethyl)-6-[(3S)-3-methylmorpholin-4-yl]pyrimidin-2-yl]-5,7-diazabicyclo[4.3.0]nona-1,3,5,8-tetraene]
Recombinant mTOR; [1]
  IC50: 932 nM

## COc1ccc(C(=O)Nc2nc(N3CCOC[C@@H]3C)cc(N3CCOC[C@@H]3C)n2)cc1C(F)(F)F [Example 4, N-[4,6-Bis[(3S)-3-methylmorpholin-4-yl]pyrimidin-2-yl]-4-methoxy-3-(trifluoromethyl)benzamide]
Recombinant mTOR; [1]
  IC50: 442 nM

## C[C@H]1COCCN1c1cc(CS(C)(=O)=O)nc(-c2cnc(-c3cn[nH]c3)s2)n1 [Example 34, 4-[(3S)-3-Methylmorpholin-4-yl]-6-(methylsulfonylmethyl)-2-[2-(1H-pyrazol-4-yl)-1,3-thiazol-5-yl]pyrimidine]
Recombinant mTOR; [1]
  IC50: 573 nM

## C[C@H]1COCCN1c1cc(CS(C)(=O)=O)nc(N2CCOCC2)n1 [Example 22, 4-[(3S)-3-methylmorpholin-4-yl]-6-(methylsulfonylmethyl)-2-morpholin-4-yl-pyrimidine]
Recombinant mTOR; [1]
  IC50: 1700 nM

## COc1ccc(C(=O)Nc2nc(N3CCOC[C@@H]3C)cc(N3CCOC[C@@H]3C)n2)cn1 [Example 6, N-[4,6-Bis[(3S)-3-methylmorpholin-4-yl]pyrimidin-2-yl]-6-methoxy-pyridine-3-carboxamide]
Recombinant mTOR; [1]
  IC50: 2680 nM

## C[C@H]1COCCN1c1cc(C(C)(C)S(C)(=O)=O)nc(-c2cnc3[nH]ccc3c2)n1 [Example 40, 3-[4-[(3S)-3-Methylmorpholin-4-yl]-6-(2-methylsulfonylpropan-2-yl)pyrimidin-2-yl]-5,7-diazabicyclo[4.3.0]nona-1,3,5,8-tetraene]
Recombinant mTOR; [1]
  IC50: 588 nM

## C[C@H]1COCCN1c1cc(CS(=O)(=O)c2ccccc2)nc(-c2ccc3[nH]cnc3c2)n1 [Example 48, 5-[4-(benzenesulfonylmethyl)-6-[(3S)-3-methylmorpholin-4-yl]pyrimidin-2-yl]-1H-benzoimidazole]
Recombinant mTOR; [1]
  IC50: 108 nM

## COc1ccccc1C(=O)Nc1cc(N2CCOC[C@@H]2C)nc(N2CCOC[C@@H]2C)n1 [Example 9, N-[2,6-Bis[(3S)-3-methylmorpholin-4-yl]pyrimidin-4-yl]-2-methoxy-benzamide]
Recombinant mTOR; [1]
  IC50: 894 nM

## C[C@H]1COCCN1c1cc(CS(C)(=O)=O)nc(-c2cnc3[nH]ccc3c2)n1 [Example 23, 3-[4-[(3S)-3-Methylmorpholin-4-yl]-6-(methylsulfonylmethyl)pyrimidin-2-yl]-5,7-diazabicyclo[4.3.0]nona-1,3,5,8-tetraene]
Recombinant mTOR; [1]
  IC50: 37.7 nM

## CC(=O)Nc1ccc(C(=O)Nc2nc(N3CCOC[C@@H]3C)cc(N3CCOC[C@@H]3C)n2)cn1 [Example 13, 6-Acetamido-N-[4,6-bis[(3S)-3-methylmorpholin-4-yl]pyrimidin-2-yl]pyridine-3-carboxamide]
Recombinant mTOR; [1]
  IC50: 1580 nM

## C[C@H]1COCCN1c1cc(CS(C)(=O)=O)nc(-c2ccc3[nH]cc(C(N)=O)c3c2)n1 [Example 33, 5-[4-[(3S)-3-Methylmorpholin-4-yl]-6-(methylsulfonylmethyl)pyrimidin-2-yl]-1H-indole-3-carboxamide]
Recombinant mTOR; [1]
  IC50: 154 nM
